Data as given in patent publication US20260070929A1, “METHODS AND COMPOSITIONS FOR MODULATING KRAS(G12D)” (Ranok Therapeutics (Hangzhou) Co. LTD., priority 2022, published 2026).
Read-outs that look alike come from different tables or passages of the source.

Legend:
[1] = tested on: AGS gastric carcinoma cells [heterozygous G12D]; assay: Cancer cell line proliferation (CellTiter-Glo), AGS; format: cell-based; settings: 72 hr treatment, read-out: AGS CTG (EC50)
Method in brief: (§1)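 A 72 hr proliferation format is used: cells at 4,000/well, pre-grown 72 hr, then treated at 37° C./5% CO2 with 0.5% DMSO final. CellTiter-Glo measures viable cells, from which EC50 is calculated.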

[2] = tested on: ASPC1 pancreatic adenocarcinoma cells [homozygous G12D]; assay: Cancer cell line proliferation (CellTiter-Glo), ASPC1; format: cell-based; settings: 72 hr treatment, read-out: ASPC-1 CTG (EC50)
Method in brief: as §1

[3] = tested on: A-427 lung carcinoma cells [heterozygous G12D]; assay: Cancer cell line proliferation (CellTiter-Glo), A-427; format: cell-based; settings: A-427 cells, 72 hr treatment, read-out: A427 CTG (EC50)
Method in brief: as §1

KRAS(G12D)/SOS1 = target: T1, KRAS(G12D)/SOS1 (Homo sapiens, UniProt P01116, G12D); assay: KRAS(G12D)/SOS1 homogeneous time-resolved fluorescence (HTRF) assay; format: binding; settings: absence of GTP; 4° C., 3 hr
T1 construct: purchased Cisbio 63ADK000CB17PEH
Method in brief: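 HTRF kit assay of compound-blocked KRAS(G12D)–SOS1 interaction, run without GTP. Compounds were tested as 3-fold dilutions from 20 µM to 1.02 nM and incubated with the reaction components for 3 hr at 4 °C, sealed. IC50 was taken as the concentration giving 50% of maximal inhibition.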

[4] = tested on: SW1990 pancreatic adenocarcinoma cells [homozygous G12D]; assay: Cancer cell line proliferation (CellTiter-Glo), SW1990; format: cell-based; settings: 72 hr treatment, read-out: SW1990 CTG (EC50)
Method in brief: as §1

T1 sequence (P01116 1-188 isoform P01116-2 G12D): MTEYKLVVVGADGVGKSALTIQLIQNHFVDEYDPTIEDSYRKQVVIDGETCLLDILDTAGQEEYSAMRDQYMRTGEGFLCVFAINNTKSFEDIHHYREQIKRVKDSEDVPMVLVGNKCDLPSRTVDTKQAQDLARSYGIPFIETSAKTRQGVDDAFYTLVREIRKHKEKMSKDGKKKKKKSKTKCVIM

SMILES	EC50 ([1]; Homo sapiens)	EC50 ([2]; Homo sapiens, ASPC1, 72 h)	EC50 ([3]; Homo sapiens)	IC50 (KRAS(G12D)/SOS1)	EC50 ([4]; Homo sapiens)	EC50 [1]	EC50 [2]	EC50 [3]	EC50 [4]
C#Cc1cccc2cc(O)cc(-c3ncc4c(N5CC6CCC(C5)N6)nc(OCC5(CN6CCC(C(=O)N7CCN(C(=O)C8CCN(Cc9ccc%10c(c9)CN(C(=O)c9cc(C(C)C)c(O)cc9O)C%10)CC8)CC7)CC6)CC5)nc4c3F)c12 [Compound 121]	< 100 nM	> 1000 nM	> 1000 nM	< 100 nM	100 to 1000 nM				
C#Cc1cccc2cccc(-c3ncc4c(N5CC6CCC(C5)N6)nc(OC[C@@H]5C[C@H](CN6CCN(Cc7ccc8c(c7)CN(C(=O)c7cc(C(C)C)c(O)cc7O)C8)CC6)CN5C)nc4c3F)c12 [Compound 122]	100 to 1000 nM	100 to 1000 nM	100 to 1000 nM	< 100 nM	100 to 1000 nM				
C#Cc1cccc2cc(O)cc(-c3ncc4c(N5CC6CCC(C5)N6)nc(OC[C@@H]5C[C@H](CN6CCN(Cc7ccc(-n8c(C(=O)NCC(F)(F)F)nnc8-c8cc(C(C)C)c(O)cc8O)cc7)CC6)CN5C)nc4c3F)c12 [Compound 123]	< 100 nM	100 to 1000 nM	100 to 1000 nM	< 100 nM	< 100 nM				
C#Cc1cccc2cc(O)cc(-c3ncc4c(N5CC6CCC(C5)N6)nc(OCC5(CN6CCN(CC7CCN(c8ccc(-n9c(C(=O)NCC)nnc9-c9cc(C(C)C)c(O)cc9O)cc8)CC7)CC6)CC5)nc4c3F)c12 [Compound 124]	< 100 nM	100 to 1000 nM	< 100 nM	< 100 nM	< 100 nM				
C#Cc1cccc2cc(O)cc(-c3ncc4c(N5CC6CCC(C5)N6)nc(OCC5(CN6CCN(CC7CCN(Cc8ccc9c(c8)CN(C(=O)c8cc(C(C)C)c(O)cc8O)C9)CC7)CC6)CC5)nc4c3F)c12 [Compound 125]				< 100 nM		< 100 nM	100 to 1000 nM	100 to 1000 nM	< 100 nM
C#Cc1cccc2cc(O)cc(-c3ncc4c(N5CC6CCC(C5)N6)nc(OCC5(CN6CCN(CC7CCN(Cc8ccc(-n9c(C(=O)NC(C)C(F)(F)F)nnc9-c9cc(C(C)C)c(O)cc9O)cc8)CC7)CC6)CC5)nc4c3F)c12 (stereo not drawn) [Compound 126]	< 100 nM	< 100 nM	< 100 nM	< 100 nM	< 100 nM				
C#Cc1cccc2cc(O)cc(-c3ncc4c(N5CC6CCC(C5)N6)nc(OCC5(CN6CCN(CC7CCN(Cc8ccc(-n9c(C(=O)NCC(F)(F)F)nnc9-c9cc(C(C)C)c(O)cc9O)cc8)CC7)CC6)CC5)nc4c3F)c12 [Compound 127]	< 100 nM	< 100 nM	< 100 nM	< 100 nM	< 100 nM				
CC(C)c1cc(C(=O)N2Cc3ccc(CN4CCC(CN5CCN(CC6(COc7nc(N8CC9CCC(C8)N9)c8cnc(-c9cccc%10ccccc9%10)c(F)c8n7)CC6)CC5)CC4)cc3C2)c(O)cc1O [Compound 128]	100 to 1000 nM	100 to 1000 nM	100 to 1000 nM	< 100 nM	100 to 1000 nM				
C#Cc1cccc2cc(O)cc(-c3ncc4c(N5CC6CNC(C6)C5)nc(OCC5(CN6CCN(CC7CCN(Cc8ccc9c(c8)CN(C(=O)c8cc(C(C)C)c(O)cc8O)C9)CC7)CC6)CC5)nc4c3F)c12 (stereo not drawn) [Compound 129]	100 to 1000 nM	> 1000 nM	100 to 1000 nM	< 100 nM	100 to 1000 nM				
C#Cc1cccc2cc(O)cc(-c3ncc4c(N5CC6CCC(C5)N6)nc(OCC5(CN6CCN(Cc7ccc(-n8c(C(=O)NCC(F)(F)F)nnc8-c8cc(C(C)C)c(O)cc8O)cc7)CC6)CC5)nc4c3F)c12 [Compound 130]	< 100 nM	100 to 1000 nM	< 100 nM	< 100 nM	< 100 nM				
C#Cc1cccc2cc(O)cc(-c3ncc4c(N5CC6CCC(C5)N6)nc(OCC5(CN6CCN(Cc7ccc8c(c7)CN(C(=O)c7cc(C(C)C)c(O)cc7O)C8)CC6)CC5)nc4c3F)c12 [Compound 131]	< 100 nM	100 to 1000 nM	100 to 1000 nM	< 100 nM	< 100 nM				
C#Cc1cccc2cc(O)cc(-c3ncc4c(N5CC6CCC(C5)N6)nc(OCC5(CN6CCC(OC7CCN(Cc8ccc(-n9c(C(=O)NCC(F)(F)F)nnc9-c9cc(C(C)C)c(O)cc9O)cc8)CC7)CC6)CC5)nc4c3F)c12 [Compound 132]	< 100 nM	< 100 nM	< 100 nM	< 100 nM	< 100 nM				
C#Cc1cccc2cc(O)cc(-c3ncc4c(N5CC6CCC(C5)N6C(=O)C(F)(F)F)nc(OCC5(CN6CCN(CC7CCN(Cc8ccc9c(c8)CN(C(=O)c8cc(C(C)C)c(O)cc8O)C9)CC7)CC6)CC5)nc4c3F)c12 [Compound 142]	100 to 1000 nM	100 to 1000 nM	100 to 1000 nM	100 to 1000 nM	100 to 1000 nM				
C#Cc1cccc2cc(O)cc(-c3ncc4c(N5CC6CCC(C5)N6C(=O)C(F)(F)F)nc(OCC5(CN6CCN(CC7CCN(Cc8ccc(-n9c(C(=O)NCC(F)(F)F)nnc9-c9cc(C(C)C)c(O)cc9O)cc8)CC7)CC6)CC5)nc4c3F)c12 [Compound 143]	< 100 nM	100 to 1000 nM	< 100 nM	100 to 1000 nM	< 100 nM				
C#Cc1cccc2cc(O)cc(-c3ncc4c(N5CC6CCC(C5)N6)nc(OCC5(CN6CCN(CC7CCN(Cc8ccc9c(c8)CN(C(=O)c8cc(C(C)C)c(OC)cc8O)C9)CC7)CC6)CC5)nc4c3F)c12 [Compound 144]	< 100 nM	100 to 1000 nM	100 to 1000 nM	< 100 nM	100 to 1000 nM				
C#Cc1c(F)ccc2cc(O)cc(-c3ncc4c(N5CC6CCC(C5)N6)nc(OCC5(CN6CCN(CC7CCN(c8ccc(-n9c(C(=O)NCC)nnc9-c9cc(C(C)C)c(O)cc9O)cc8)CC7)CC6)CC5)nc4c3F)c12 [Compound 145]	< 100 nM	100 to 1000 nM	< 100 nM	< 100 nM	< 100 nM				
C#Cc1c(F)ccc2cc(O)cc(-c3ncc4c(N5CC6CCC(C5)N6C(=O)C(F)(F)F)nc(OCC5(CN6CCN(CC7CCN(Cc8ccc(-n9c(C(=O)NC(C)C(F)(F)F)nnc9-c9cc(C(C)C)c(O)cc9O)cc8)CC7)CC6)CC5)nc4c3F)c12 (stereo not drawn) [Compound 146]	< 100 nM	100 to 1000 nM	< 100 nM	100 to 1000 nM	< 100 nM				
C#Cc1c(F)ccc2cc(O)cc(-c3ncc4c(N5CC6CCC(C5)N6C(=O)C(F)(F)F)nc(OCC5(CN6CCN(CC7CCN(Cc8ccc(-n9c(C(=O)NCC)nnc9-c9cc(C(C)C)c(O)cc9O)cc8)CC7)CC6)CC5)nc4c3F)c12 [Compound 147]	< 100 nM	100 to 1000 nM	< 100 nM	< 100 nM	< 100 nM				
C#Cc1c(F)ccc2cc(O)cc(-c3ncc4c(N5CC6CCC(C5)N6)nc(OCC5(CN6CCN(CC7CCN(Cc8ccc(-n9c(C(=O)NCC)nnc9-c9cc(C(C)C)c(O)cc9O)cc8)CC7)CC6)CC5)nc4c3F)c12 [Compound 148]	< 100 nM	< 100 nM	< 100 nM	< 100 nM	< 100 nM				
C#Cc1c(F)ccc2cc(O)cc(-c3ncc4c(N5CC6CCC(C5)N6)nc(OCC5(CN6CCN(CC7CCN(Cc8ccc(-n9c(C(=O)NCC)nnc9-c9cc(CC)c(O)cc9O)cc8)CC7)CC6)CC5)nc4c3F)c12 [Compound 149]	< 100 nM	< 100 nM	< 100 nM	< 100 nM	< 100 nM				
C#Cc1cccc2cc(O)cc(-c3ncc4c(N5CC6CCC(C5)N6C(C)=O)nc(OCC5(CN6CCN(CC7CCN(Cc8ccc(-n9c(C(=O)NC(C)C(F)(F)F)nnc9-c9cc(C(C)C)c(O)cc9O)cc8)CC7)CC6)CC5)nc4c3F)c12 (stereo not drawn) [Compound 150]	< 100 nM	100 to 1000 nM	< 100 nM	100 to 1000 nM	< 100 nM				
